Assay results: patent publication US8907093B2, “Carboxylic acid derivatives having an oxazolo[4,5-c]pyridine ring” (Sanofi, priority 2011, dated 2014)

Molecular target: T1, human Edg 1 receptor (Homo sapiens, UniProt P21453)
T1 construct: FLAG (N); expressed in transfected cells; membrane preparation
Assay: GTP-γ-S assay using human Edg 1 receptors (scintillation proximity assay, CHO Flp-In membrane preparation)
Assay type: biochemical
Settings: test compound at 10 μM; [35S]GTP-γ-S binding; membranes of CHO Flp-In cells overexpressing human Edg 1
Text: A) GTP-γ-S assay using human Edg 1 receptors
In order to determine the Edg 1 receptor activation by the compounds of the invention, a GTP-γ-S ((GTP-γ-S=guanosine 5′-[thio]triphosphate) assay for G-protein coupled receptor binding based on the scintillation proximity assay principle was used, employing a cell membrane preparation from a CHO Flp-In cell line which constitutively overexpresses the human Edg 1 receptor.
A membrane preparation was obtained by standard methods from the afore-described CHO Flp-In cell line constitutively overexpressing the human Edg 1 receptor. Briefly, the cryopreserved cells were taken in culture and grown until confluency in T175 cell culture flasks (Becton Dickinson, cat. no. 35 5001). […] Protein concentration of the membrane preparation was determined in a sample by means of a commercial protein assay (Bio-Rad, DC Protein Assay, cat. nos. 500-0113, 500-0114, 500-0115).
The Edg 1 membrane preparation obtained in (b) was employed in a commercially available scintillation proximity assay (SPA) kit for G-protein coupled receptor binding from Amersham Biosciences/GE Healthcare (code RPNQ0210), in which ligand-induced binding of ^35S-radiolabeled GTP-γ-S to the receptor-containing membrane, which is bound to scintillation beads, stimulates the emission of light and allows to quantify the in vitro activity of the Edg 1 agonistic compound. […]

T1 sequence (P21453 whole entry): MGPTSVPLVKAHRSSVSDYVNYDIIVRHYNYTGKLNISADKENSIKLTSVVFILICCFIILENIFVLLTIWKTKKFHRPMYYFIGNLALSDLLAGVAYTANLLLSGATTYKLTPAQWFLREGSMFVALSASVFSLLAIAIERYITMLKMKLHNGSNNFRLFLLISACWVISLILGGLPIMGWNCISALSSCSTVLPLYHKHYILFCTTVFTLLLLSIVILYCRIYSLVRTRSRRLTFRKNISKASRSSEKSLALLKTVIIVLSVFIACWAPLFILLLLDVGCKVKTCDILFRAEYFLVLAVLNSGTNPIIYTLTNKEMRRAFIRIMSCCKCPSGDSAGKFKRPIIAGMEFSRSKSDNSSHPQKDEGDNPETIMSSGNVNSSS

## Cc1cc(-c2nc3cnc(Oc4ccccc4F)cc3o2)cc(C)c1OCC(=O)O [Example 1, {4-[6-(2-Fluorophenoxy)oxazolo[4,5-c]pyridin-2-yl]-2,6-dimethylphenoxy}acetic acid]
  receptor activation in percent of the respective high control (10 μM S1P, regarded as 100% activation): 86%
